Source: US4891374A, “Imidazo- and triazolothiadiazines” (Hoechst Aktiengesellschaft, priority 1987, dated 1990)
Counter-ions that a name gives are not always drawn.

How the values were obtained:
[1] = tested on: Adjuvant arthritis; assay: Adjuvant arthritis (Pearson): reduction in increase in paw volume; format: in vivo, male rats of the Wistar-Lewis strain; conditions: 50 mg/kg p.o. once daily day 1 to day 5; reduction in increase in paw volume vs control
Procedure: The investigations were carried out using the method of Pearson (Arthrit. Rheum. 2 (1959), p. 44). The experimental animals used were male rats of the Wistar-Lewis strain having a body weight between 130 and 200 g. Compounds to be tested were administered orally (p.o.) once daily from day 1 to day 5 of the experiment in doses of 50 mg per kg of body weight. The animals in a control group were given only the vehicle. Each preparation group and the control group contained 8 animals. The criterion used to determine the action was the percentage reduction in the increase in paw volume compared to that of the untreated control group.

[2] = in vivo; conditions: rat, po
Procedure: The investigation was in each case carried out on 10 male Sprague-Dawley rats whose gastric mucous membrane had been sensitized by hunger stress. The body weight of the animals was between 200 and 300 g. While allowing free access to the drinking water, the feed was withdrawn 48 hours before administration of the test preparations until sacrifice of the animals. The rats were sacrificed 24 hours after oral administration of the substance, and the stomachs were removed, cleaned under running water and inspected for mucous membrane lesions. All macroscopically visible lesions were regarded as ulcers. The number of animals having ulcers was determined per dose, and this figure was used to calculate, by the method of Litchfield and Wilcoxon (J. Pharmacol. Exp. Ther. 96 (1949), p. 99), the UD50 values, ie. the doses at which lesions were caused in 50% of the animals.

[3] = in vivo; conditions: mouse, ip
Procedure: The LD50 values were determined by standard methods from the mortality occurring within 7 days in NMRI (Naval Medical Research Institute) mice (6 animals per dose) after a single intraperitoneal (i.p.) administration.

[4] = tested on: lymphocytes; assay: Inhibition of immunopathological processes: adjuvant arthritis, immune activity of lymphocytes towards mitogens; format: in vivo, rat
[5] = tested on: lymphocytes from the spleen; assay: Inhibition of immunopathological processes: type II collagen-induced arthritis, immune activity of spleen lymphocytes towards mitogens; format: in vivo, male Wistar rats; conditions: 20-day treatment phase
Text: It is generally accepted today that the advanced course of inflammatory rheumatic disorders is caused mainly by disfunctions in the immune system and that causal therapy can only succeed using medicaments which are capable of interrupting these immunopathological processes.
In this experiment, arthritis was induced in male Wistar rats by means of type II collagen, which could be obtained by standard methods of Miller and Rhodes (Meth. Enzymol. 82 (1982), p. 33) from the nasal septum of the calf and, mixed with Freund's incomplete adjuvant, was injected intradermally into the animals. This immunization procedure was repeated 7 days later. 20 days after the initial immunization, the sick rats were divided into groups each containing 7 animals, which, in the subsequent 20-day treatment phase, received the respective test substance or the pure vehicle (control group) once daily orally.
On day 41 of the experiment, ie. one day after the final administration of substance, lymphocytes were obtained from the spleen of the experimental animals and their immune activity towards mitogens was investigated, since the immune status of lymphocytes is also sensitively impaired in this model.

[6] = tested on: Adriamycin (doxorubicin) induced inflammation; assay: Adriamycin-induced inflammation (paw volume); format: in vivo, male Sprague-Dawley rats; conditions: for protective effect against Adriamycin-induced tissue destruction: orally once daily on 4 successive days
Text: According to current opinion, aggressive oxygen radicals, which are formed to excess during the chronic inflammation process and, as highly toxic inflammation mediators themselves, perpetually maintain the destruction of connective tissue which proceeds via irreversible lipid peroxidation of the cell membranes, participate prominently in the progressive course, caused by a number of factors, of rheumatoid arthritis and other inflammatory disorders. As a consequence, pharmaceuticals having an antioxidative action and having the capability to deactivate these extremely cytotoxic oxygen radicals should allow specific intervention in the chronic course of the inflammation. A suitable animal model for this type of tissue destruction caused by oxygen radicals is Adriamycin (doxorubicin) induced inflammation in the rat. The investigations were carried out using the method of D. M. Siegel et al. (Inflammation 4 (1980), p. 233) on male Sprague-Dawley rats having a body weight between 200 and 230 g in groups each containing 7 animals, which received 0.1 mg of Adriamycin, dissolved in 0.1 ml of 0.9% strength sodium chloride solution, by means of subcutaneous injection into the left rear paw. The increase in paw volume was determined 72 hours later by plethysmographic measurement as a measure of the degree of inflammation. The test preparations were administered orally in 1% strength aqueous carboxymethylcellulose suspension once daily on 4 successive days, starting with the day of Adriamycin injection.

[7] = tested on: microsomal lipid peroxidation; assay: In-vitro inhibition of lipid peroxidation (thiobarbituric acid test), microsomes; format: biochemical; conditions: rat liver microsomes
Text: (§1) Further convincing evidence of the pronounced protective action of the compounds according to the invention against aggressive oxygen radicals is provided by the thiobarbituric acid test of A. Ottolenghi (Arch. Biochem. Biophys. 79 (1959) pp. 355-363). Using this in-vitro method, the influence on microsomal and mitochondrial lipid peroxidation by antioxidatively active preparations can be determined from the malonodialdehyde produced on oxidative degradation of membrane-bound, polyunsaturated fatty acids.
(§2) Here too, the compounds of the formula I exerted a strong inhibitory action.

[8] = tested on: mitochondrial lipid peroxidation; assay: In-vitro inhibition of lipid peroxidation (thiobarbituric acid test), mitochondria; format: biochemical; conditions: rat liver mitochondria
Text: as §1, §2

[9] = tested on: 5-lipoxygenase; assay: Inhibition of 5-lipoxygenase in isolated polymorphonuclear granulocytes (LTB4 and 5-HETE formation); format: cell-based, human; conditions: 10^-5 to 10^-6 mol/l; pre-incubation 15 minutes; calcium ionophor A 23 187-stimulated; 15 minutes at 37° C.
Procedure: The inhibitory action of the compounds according to the invention on 5-lipoxygenase-catalyzed degradation of arachidonic acid was determined, as usual, in in-vitro experiments on isolated polymorphonuclear human granulocytes. To this purpose, cells stimulated by calcium ionophor A 23 187 (Calbiochem GmbH, Frankfurt/Main, FRG, Biochemical and Immunochemical Catalog 1985, p. 284) were incubated with ^14 C-labeled arachidonic acid, and the major radioactive degradation products of arachidonic acid formed after 15 minutes at 37° C. by biotransformation, 5-hydroxyeicosatetraenoic acid (5-HETE) and leucotriene B4 (LTB4), which has a particularly strong pro-inflammatory action, were determined quantitatively with the aid of a radio monitor after separation by high-pressure liquid chromatography (HPLC).

CC1Sc2nncn2N=C1c1cc(C(C)(C)C)c(O)c(C(C)(C)C)c1 (stereo not shown) [Example 5, 3-(3,5-Di-tert.butyl-4-hydroxyphenyl)-2-methyl-2H-s-triazolo[3,4-b][1,3,4]thiadiazine]
Adjuvant Arthritis (% inhibition at 50 mg/kg p.o.) [1]: 56%
TD50 at 24 h [2]: > 200 mg/kg
LD50 at 168 h [3]: > 1200 mg/kg

CC(C)(C)c1cc(C2=NN3CC(=O)N=C3SC2)cc(C(C)(C)C)c1O [Example 6, 3-(3,5-Di-tert.butyl-4-hydroxyphenyl)-7-oxo-6,7-dihydro-2H-imidazo[2,1-b][1,3,4]-thiadiazine hydrobromide]
Adjuvant Arthritis (% inhibition at 50 mg/kg p.o.) [1]: 73%
TD50 at 24 h [2]: > 200 mg/kg
LD50 at 168 h [3]: 300 to 600 mg/kg

CC(C)(C)c1cc(C2=NN3CCN=C3SC2)cc(C(C)(C)C)c1O [Example 1, 3-(3,5-Di-tert.butyl-4-hydroxyphenyl)-6,7-dihydro-2H-imidazo[2,1-b][1,3,4]thiadiazine hydrochloride]
Adjuvant Arthritis (% inhibition at 50 mg/kg p.o.) [1]: 62%
TD50 at 24 h [2]: 400 mg/kg
LD50 at 168 h [3]: > 1200 mg/kg
normalization of the immunoreactivity ([4]; oral administration of 20 mg/kg): substantial normalization of the immunoreactivity
immune function of B lymphocytes ([5]; 25 mg/kg p.o. once daily): completely normalized
immune function of T lymphocytes ([5]; 25 mg/kg p.o. once daily): completely normalized
inhibition of Adriamycin-induced tissue destruction ([6]; 80 mg/kg p.o. once daily on 4 successive days, paw volume 72 hours after Adriamycin): 55%
protective effect against Adriamycin-induced tissue destruction [6]: dose-dependent protective effect
IC50 [7]: 500 nM
IC50 [8]: 4000 nM
inhibition of formation of 5-HETE [9]: significantly inhibit
inhibition of formation of LTB4 [9]: significantly inhibit

COc1ccc2cc(C(C)C(=O)O)ccc2c1 (stereo not shown) [naproxen, 2-(6-methoxy2-naphthyl)-propionic acid, reference compound]
Adjuvant Arthritis (% inhibition at 50 mg/kg p.o.) [1]: 55%
stimulating action on suppressed immunological response ([4]; doses up to 25 mg/kg): ineffective
curative effects on the greatly weakened immune system ([5]; once daily orally): no action
protective effect against Adriamycin-induced tissue destruction [6]: ineffective

CC(C)(C)c1cc(C2=Nn3ccnc3SC2)cc(C(C)(C)C)c1O [Example 4, 3-(3,5-Di-tert.butyl-4-hydroxyphenyl)-2H-imidazo[2,1-b][1,3,4]thiadiazine hydrochloride]
Adjuvant Arthritis (% inhibition at 50 mg/kg p.o.) [1]: 69%
TD50 at 24 h [2]: > 200 mg/kg
LD50 at 168 h [3]: 300 to 600 mg/kg

CC1SC2=NCCN2N=C1c1cc(C(C)(C)C)c(O)c(C(C)(C)C)c1 (stereo not shown) [Example 2, 3-(3,5-Di-tert.butyl-4-hydroxyphenyl)-2-methyl-6,7-dihydro-2H-imidazo[2,1-b][1,3,4]thiadiazine hydrochloride]
Adjuvant Arthritis (% inhibition at 50 mg/kg p.o.) [1]: 63%
TD50 at 24 h [2]: 200 mg/kg
LD50 at 168 h [3]: > 1200 mg/kg

CC(C)(C)c1cc(C2=NN3C(=O)CN=C3SC2)cc(C(C)(C)C)c1O [Example 7, 3-(3,5-Di-tert.butyl-4-hydroxyphenyl)-6-oxo-6,7-dihydro-2H-imidazo[2,1-b][1,3,4]thiadiazine hydrobromide]
Adjuvant Arthritis (% inhibition at 50 mg/kg p.o.) [1]: 59%
TD50 at 24 h [2]: > 200 mg/kg
LD50 at 168 h [3]: 300 to 600 mg/kg
